Test [1] has as its system LP-1 cell line (FGF-1/Heparin induced pERK). Kind of test: Cell-based pERK ELISA, LP-1 cells. The note with it: Homo sapiens, LP-1, read-out: LP-1 pERK ELISA (μM). On the technique in general: ELISA stands for enzyme-linked immunosorbent assay.
Test [2] concerns parental wild-type Ba/F3 cells. Kind of test: Ba/F3 (WT) cell proliferation assay (Alamar Blue). The format is cell-based. The note with it: Mus musculus; for inhibition at 10 µM / inhibition at 3 µM / inhibition at 1 µM: BaF3, read-out: BaF3 WT prolif, % inhibition; for IC50: BaF3, 72 hours, Alamar Blue, read-out: BaF3 WT prolif. A general note: The colour change of resazurin is a common sign of viable cells or microbes.

Regarding `O=C(NCC(F)(F)F)Nc1cccc(-c2cnc3cc(C#Cc4cccnc4)ccn23)c1` [Example 11, 1-[3-(7-Pyridin-3-ylethynylimidazo[1,2-a]pyridin-3-yl)phenyl]-3-(2,2,2-trifluoroethyl)urea], the IC50 in test [1] amounted to 0.032 µM.
The same measure, in the same setting: the result for `O=C(NCC(F)(F)F)Nc1cncc(-c2cnc3cc(-c4cccnn4)ccn23)c1` [Example 20, 1-[5-(7-Pyridazin-3-ylimidazo[1,2-a]pyridin-3-yl)pyridin-3-yl]-3-(2,2,2-trifluoroethyl)urea] reads 1.1 µM.
For `O=C(NCC(F)(F)F)Nc1cccc(-c2cnc3cc(-c4ccc(OC5CCCNC5)nn4)ccn23)c1` (stereo not shown) [Example 131, 1-(3-{7-[6-(Piperidin-3-yloxy)-pyridazin-3-yl]-imidazo[1,2-a]pyridin-3-yl}-phenyl)-3-(2,2,2-trifluoro-ethyl)-urea], the inhibition (in general, the percentage by which the read-out fell short of the control) at 10 µM in test [2] came to 2.9%.
Turning to `Cc1cc(-c2ccn3c(-c4cccc(NC(=O)NCC(F)(F)F)c4)cnc3c2)nnc1Cl` [Example 135, 1-{3-[7-(6-Chloro-5-methyl-pyridazin-3-yl)-imidazo[1,2-a]pyridin-3-yl]-phenyl}-3-(2,2,2-trifluoro-ethyl)-urea], the IC50 in test [2] was 510 nM.
Still for that read-out and setting: the result for `Cc1cc(Cl)nnc1-c1ccn2c(-c3cccc(NC(=O)NCC(F)(F)F)c3)cnc2c1` [Example 136, 1-{3-[7-(6-Chloro-4-methyl-pyridazin-3-yl)-imidazol[1,2-a]pyridin-3-yl]-phenyl}-3-(2,2,2-trifluoro-ethyl)-urea] reads 440 nM.
As to `COc1cnc(Cl)nc1-c1ccn2c(-c3cccc(NC(=O)NCC(F)(F)F)c3)cnc2c1` [Example 139, 1-{3-[7-(2-Chloro-5-methoxy-pyrimidin-4-yl)-imidazo[1,2-a]pyridin-3-yl]-phenyl}-3-(2,2,2-trifluoro-ethyl)-urea], the IC50 in test [2] was determined as 3600 nM.
On to `COc1cncnc1-c1ccn2c(-c3cccc(NC(=O)NCC(F)(F)F)c3)cnc2c1` [Example 140, 1-{3-[7-(5-Methoxy-pyrimidin-4-yl)-imidazo[1,2-a]pyridin-3-yl]-phenyl}-3-(2,2 ,2-trifluoro-ethyl)-urea], for which the inhibition at 10 µM in test [2] stood at 7.1%.
For the molecule `Cc1cnnc(-c2ccn3c(-c4cccc(NC(=O)NCC(F)(F)F)c4)cnc3c2)n1` [Example 142, 1-{3-[7-(5-Methyl-[1,2,4]triazin-3-yl)-imidazo[1,2-a]pyridin-3-yl]-phenyl}-3-(2,2,2-trifluoro-ethyl)-urea], the IC50 in test [2] stood at 1100 nM.
Same read-out and setting: the result for `CC(=O)N1CCN(c2ccc(-c3ccn4c(-c5cccc(NC(=O)NCC(F)(F)F)c5)cnc4c3)cn2)CC1` [Example 145, 1-(3-{7-[6-(4-Acetyl-piperazin-1-yl)-pyridin-3-yl]-imidazo[1,2-a]pyridin-3-yl}-phenyl)-3-(2,2,2-trifluoro-ethyl)-urea] reads 820 nM; that for `COc1ncccc1-c1ccn2c(-c3cccc(NC(=O)NCC(F)(F)F)c3)cnc2c1` [Example 150, 1-{3-[7-(2-Methoxy-pyridin-3-yl)-imidazo[1,2-a]pyridin-3-yl]-phenyl}-3-(2,2,2-trifluoro-ethyl)-urea], 1700 nM.
For the molecule `Cn1cncc1/C=C/c1ccn2c(-c3cccc(NC(=O)NCC(F)(F)F)c3)cnc2c1` [Example 155, 1-(3-{7-[(E)-2-(3-Methyl-3H-imidazol-4-yl)-vinyl]-imidazo[1,2-a]pyridin-3-yl}-phenyl)-3-(2,2,2-trifluoro-ethyl)-urea], in test [2], the inhibition at 3 µM came to 28%.
Consider `Cc1nnc(-c2ccn3c(-c4cccc(NC(=O)NC5CC5)c4)cnc3c2)o1` [Example 157, 1-Cyclopropyl-3-{3-[7-(5-methyl-[1,3,4]oxadiazol-2-yl)-imidazo[1,2-a]pyridin-3-yl]-phenyl}-urea], for which the inhibition at 10 µM in test [2] is 38%.
In the case of `O=C(Nc1cccc(-c2cnc3cc(-c4nncs4)ccn23)c1)NC1CC1` [Example 158, 1-Cyclopropyl-3-[3-(7-[1,3,4]thiadiazol-2-yl-imidazo[1,2-a]pyridin-3-yl)-phenyl]-urea], in test [2], the IC50 came to 2900 nM.
For `Nc1cnc(-c2ccn3c(-c4cccc(NC(=O)NCC(F)(F)F)c4)cnc3c2)nc1Cl` [Example 170], in test [2], the inhibition at 3 µM was found to be 14%.
Take `Cc1cc(N)nc(-c2ccn3c(-c4cccc(NC(=O)NCC(F)(F)F)c4)cnc3c2)n1` [Example 171]: the inhibition at 1 µM in test [2] worked out at 16%.
For the molecule `Cc1nc(-c2ccn3c(-c4cccc(NC(=O)NCC(F)(F)F)c4)cnc3c2)ccc1F` [Example 172], the IC50 in test [2] was 3400 nM.
As to `O=C(NCC(F)(F)F)Nc1cccc(-c2cnc3cc(-c4ncc(F)c(NC5CC5)n4)ccn23)c1` [Example 180], in test [2], the inhibition at 10 µM is 42%.
The same measure, in the same setting: the result for `O=C(NCC(F)(F)F)Nc1cccc(-c2cnc3cc(-c4cc(=O)[nH]cn4)ccn23)c1` [Example 184] reads 22%.
`Cn1ccnc1/C=C/c1ccn2c(-c3cccc(NC(=O)NCC(F)(F)F)c3)cnc2c1` [Example 189]: in test [2], the IC50 stood at 3400 nM.
On to `O=C(NCC(F)(F)F)Nc1cccc(-c2cnc3cc(-c4nccc(=O)[nH]4)ccn23)c1` [Example 190], for which the inhibition at 3 µM in test [2] was found to be 35%.
Same read-out and setting: the result for `Cc1nc(-c2ccn3c(-c4cccc(NC(=O)NCC(F)(F)F)c4)cnc3c2)cc(N2CCN(CCO)CC2)n1` [Example 194] reads 26%.
On to `NC1CN(c2ccnc(-c3ccn4c(-c5cccc(NC(=O)NCC(F)(F)F)c5)cnc4c3)n2)C1` [Example 197], for which the IC50 in test [2] came to 2600 nM.
On to `O=C(NCC(F)(F)F)Nc1cccc(-c2cnc3cc(-c4ccnc(C(F)(F)F)n4)ccn23)c1` [Example 199], for which the inhibition at 10 µM in test [2] came out at 62%.
On the same count and under the same terms, the result for `O=C(NCC(F)(F)F)Nc1cccc(-c2cnc3cc(-c4nccc(N5CC(O)C5)n4)ccn23)c1` [Example 203] reads 30%.
For the molecule `COc1ccc(-c2ccn3c(-c4cccc(NC(=O)NCC(F)(F)F)c4)cnc3c2)nc1` [Example 204], in test [2], the IC50 was 820 nM.
Still for that read-out and setting: the result for `CSc1nc(N)cc(-c2ccn3c(-c4cccc(NC(=O)NCC(F)(F)F)c4)cnc3c2)n1` [Example 205] reads 9800 nM; that for `O=C(NCC(F)(F)F)Nc1cccc(-c2cnc3cc(/C=C/CO)ccn23)c1` [Example 206], 2900 nM.
For the molecule `NC(=O)c1ccc(-c2ccn3c(-c4cccc(NC(=O)NCC(F)(F)F)c4)cnc3c2)nc1` [Example 207], in test [2], the inhibition at 10 µM is 14%.
Same read-out and setting: next, `Cc1nc(N)cc(-c2ccn3c(-c4cccc(NC(=O)NCC(F)(F)F)c4)cnc3c2)n1` [Example 208]: 21%; `NC(=O)c1ccnc(-c2ccn3c(-c4cccc(NC(=O)NCC(F)(F)F)c4)cnc3c2)c1` [Example 209]: 0%.
The same measure, in the same setting: next, `O=C(NCC(F)(F)F)Nc1cccc(-c2cnc3cc(-c4nccc(-n5ccnc5)n4)ccn23)c1` [Example 213]: 22%.
Regarding `CN(C)c1cc(-c2ccn3c(-c4cccc(NC(=O)NCC(F)(F)F)c4)cnc3c2)nc(C(F)(F)F)n1` [Example 214], the IC50 in test [2] amounted to 2600 nM.
As to `CN(C)S(=O)(=O)n1ccnc1-c1ccnc(-c2ccn3c(-c4cccc(NC(=O)NCC(F)(F)F)c4)cnc3c2)n1` [Example 216], the inhibition at 10 µM in test [2] was found to be 28%.
In the case of `O=C(NCC(F)(F)F)Nc1cccc(-c2cnc3cc(-c4cnn(C5CN(CCO)C5)c4)ccn23)c1` [Example 217], in test [2], the inhibition at 3 µM came to 37%.
Take `CNc1cc(-c2ccn3c(-c4cccc(NC(=O)NCC(F)(F)F)c4)cnc3c2)nc(SC)n1` [Example 218]: in test [2], the inhibition at 10 µM is 30%.
As to `Cc1nc2cc(-c3ccn4c(-c5cccc(NC(=O)NCC(F)(F)F)c5)cnc4c3)ccc2s1` [Example 219], in test [2], the IC50 worked out at 3500 nM.
Still for that read-out and setting: the result for `CNC(=O)c1ccnc(-c2ccn3c(-c4cccc(NC(=O)NCC(F)(F)F)c4)cnc3c2)n1` [Example 220] reads 1500 nM.
For `O=C(NCC(F)(F)F)Nc1cccc(-c2cnc3cc(-c4nccc(C(=O)N5CCOCC5)n4)ccn23)c1` [Example 221], in test [2], the inhibition at 3 µM worked out at 21%.
For the molecule `CNC(=O)c1cc(C)nc(-c2ccn3c(-c4cccc(NC(=O)NCC(F)(F)F)c4)cnc3c2)n1` [Example 222], the IC50 in test [2] turned out to be 2300 nM.
As for `Cc1cn2nc(-c3ccn4c(-c5cccc(NC(=O)NCC(F)(F)F)c5)cnc4c3)sc2n1` [Example 225], the inhibition at 10 µM in test [2] was 0%.
On the same count and under the same terms, the result for `Cc1cc(-c2ccn3c(-c4cccc(NC(=O)NCC(F)(F)F)c4)cnc3c2)nc(C(C)C)n1` [Example 226] reads 40%.
Take `O=C(NCC(F)(F)F)Nc1cccc(-c2cnc3cc(-c4cc(C(F)(F)F)ncn4)ccn23)c1` [Example 227]: in test [2], the IC50 turned out to be 3600 nM.
Still for that read-out and setting: next, `CCNC(=O)Nc1cccc(-c2cnc3cc(-c4ccc(F)c(C)n4)ccn23)c1` [Example 228]: 5100 nM.
As for `Nc1nc(-c2ccn3c(-c4cccc(NC(=O)NCC(F)(F)F)c4)cnc3c2)ccc1C(F)(F)F` [Example 231], the inhibition at 10 µM in test [2] was found to be 23%.
As to `Nc1cc(-c2ccn3c(-c4cccc(NC(=O)NCC(F)(F)F)c4)cnc3c2)ncc1C(F)(F)F` [Example 234], the IC50 in test [2] amounted to 6400 nM.
On to `CCNC(=O)Nc1cccc(-c2cnc3cc(-c4ncc(C(F)(F)F)c(N)n4)ccn23)c1` [Example 235], for which the IC50 in test [2] turned out to be 1200 nM.
Same read-out and setting: next, `Cc1cc(-c2ccn3c(-c4cccc(NC(=O)NCC(F)(F)F)c4)cnc3c2)nc(C(F)(F)F)n1` [Example 237]: 120 nM.
For the molecule `CCOc1cnc(-c2ccn3c(-c4cccc(NC(=O)NCC(F)(F)F)c4)cnc3c2)nc1` [Example 240], in test [2], the inhibition at 10 µM is 17%.
Same read-out and setting: the result for `O=C(NCC(F)(F)F)Nc1cccc(-c2cnc3cc(-c4nnc(CCN5CCCC5)s4)ccn23)c1` [Example 241] reads 4.2%.
As to `CC(C)c1cnc(N)nc1-c1ccn2c(-c3cccc(NC(=O)NCC(F)(F)F)c3)cnc2c1` [Example 242], the IC50 in test [2] was found to be 1700 nM.
For the molecule `O=C(NCC(F)(F)F)Nc1cccc(-c2cnc3cc(-c4ncc(C(F)(F)F)cn4)ccn23)c1` [Example 244], in test [2], the inhibition at 3 µM came out at 17%.
`Cc1cn2nc(-c3ccn4c(-c5cc(NC(=O)NCC(F)(F)F)cc(OC(C)C)c5)cnc4c3)sc2n1` [Example 247]: the inhibition at 1 µM in test [2] is 36%.

The values above are taken from patent US8796244B2, “Imidazopyridine derivatives as inhibitors of receptor tyrosine kinases” (Astex Therapeutics Ltd, priority 2008, dated 2014).
